According to patent publication US11458149B1, “TEAD inhibitors and uses thereof” (Ikena Oncology, Inc., priority 2019, dated 2022):
pEC50: −log10 of the molar value. Read-outs that look alike come from different tables or passages of the source.

Columns and labels:
TEAD = TEAD reporter assay (Hippo Pathway TEAD Reporter - MCF7 cell line, luciferase); assay type: cell-based, human; settings: for pEC50: read-out: TEAD Reporter Assay EC50
Source text: TEAD inhibition can be assayed using Hippo Pathway TEAD Reporter—MCF7 Cell Line (BPS Bioscience, Catalog #: 60618).
The TEAD Reporter—MCF7 cell line contains the firefly luciferase gene under the control of TEAD responsive elements stably integrated into the human breast cancer cell line, MCF7. Inside the cells, basal unphosphorylated YAP/TAZ remains in the nucleus and induces the constitutive expression of luciferase reporter. The cell line is validated for the inhibition of the expression of luciferase reporter by the activators of the Hippo pathway.
• 1) Harvest TEAD Reporter—MCF7 cells from culture in growth medium and seed cells at a density of 35,000 cells per well into white clear-bottom 96-well microplate in 45 μl of assay medium. • 2) Incubate cells at 37° C. in a CO2 incubator for overnight. • 3) Dilute the activators (H2O2 or okadaic acid) stock in assay medium. Add 5 μl of diluted activators to the wells. The final concentration of DMSO in assay medium is 0.1%. • 4) Add 5 μl of assay medium with same concentration of DMSO without activator to control wells. • 5) Add 50 μl of assay medium with DMSO to cell-free control wells (for determining background luminescence). • 6) Set up each treatment in at least triplicate. • 7) Incubate cells at 37° C. in a CO2 incubator for 5-6 hours. • 8) Perform luciferase assay using the ONE-Step™ Luciferase Assay System following the protocol provided: Add 100 μl of ONE-Step™ Luciferase reagent per well and rock at room temperature for ˜15 minutes. Measure luminescence using a luminometer. • 9) Data Analysis: Obtain the background-subtracted luminescence by subtracting the average background luminescence (cell-free control wells) from the luminescence reading of all wells.
(§1) Certain compounds were tested in TEAD reporter assay, and in H226 and H28. A: EC50<0.1 uM; B: 0.1 uM≤EC50≤0.5 uM; C: EC50>0.5 uM.

H226 = assay: Anti-proliferation assay in H226 cells; assay type: cell-based, human; settings: for pEC50: read-out: H226 EC50
Procedure: as §1
Individual cell lines were grown in medium according to supplier instructions and seeded into 96-well plates at a density that ensured logarithmic growth over 72 hours. TEAD inhibitor compounds were administered to cells at a top concentration of 10 μm and subsequently a 10 point 3-fold serial dilution was conducted. After 72 hours, proliferation was quantified using Cell TITERGLO™ (Promega, Inc.) and compared to vehicle control. IC50 and EC50 values were generated using XLFit curve fitting software.

[1] = Homo sapiens, MCF7, TEAD Reporter - MCF7 cells
[2] = Homo sapiens, NCI-H226, H226 cells

SMILES: C=CC(=O)NC1CCN(Cc2ccccc2)CC1 [Compound I-54, N-(1-benzyl-4-piperidyl)prop-2-enamide]
- pEC50 (TEAD; [1]): < 6.30
- pEC50 (H226; [2]): < 6.30

SMILES: C=CC(=O)Nc1ccc2c(c1)N(c1ccc(C(F)(F)F)cc1)CCC2 [Compound I-34, N-[1-[4-(Trifluoromethyl)phenyl]-3,4-dihydro-2H-quinolin-7-yl]prop-2-enamide]
- pEC50 (TEAD; [1]): < 6.30

SMILES: C=CC(=O)N[C@H]1CCN(Cc2ccc(C(F)(F)F)cc2)c2ccccc21 [Compound I-68, N-[(4S)-1-[[4-(Trifluoromethyl)phenyl]methyl]-3,4-dihydro-2H-quinolin-4-yl]prop-2-enamide]
- pEC50 (TEAD; [1]): 6.30 to 7.00
- pEC50 (H226; [2]): < 6.30

SMILES: C=CC(=O)Nc1cc(Oc2cccc(C(F)(F)F)c2)c2cccnc2c1 [Compound I-44, N-[5-[3-(Trifluoromethyl)phenoxy]-7-quinolyl]prop-2-enamide]
- pEC50 (TEAD; [1]): > 7.00
- pEC50 (H226; [2]): > 7.00

SMILES: C=CC(=O)N[C@H]1CCN(Cc2ccc(C(F)(F)F)cc2)C1 [Compound I-57, N-[(3S)-1-[[4-(trifluoromethyl)phenyl]methyl]pyrrolidin-3-yl]prop-2-enamide]
- pEC50 (TEAD; [1]): < 6.30
- pEC50 (H226; [2]): < 6.30

SMILES: C=CC(=O)N1CC[C@H](NCc2ccc(C(F)(F)F)cc2)C1 [Compound I-64, 1-[(3S)-3-[[4-(Trifluoromethyl)phenyl]methylamino]pyrrolidin-1-yl]prop-2-en-1-one]
- pEC50 (TEAD; [1]): > 7.00
- pEC50 (H226; [2]): > 7.00

SMILES: NC(=O)/C=C/c1cc(Oc2cccc(C(F)(F)F)c2)cc2ncccc12 [Compound I-39, (E)-3-[7-[3-(trifluoromethyl)phenoxy]-5-quinolyl]prop-2-enamide]
- pEC50 (TEAD; [1]): < 6.30
- pEC50 (H226; [2]): < 6.30

SMILES: C=CC(=O)NC1(C)CCN(Cc2ccc(C(F)(F)F)cc2)CC1 [Compound I-73, N-[4-methyl-1-[[4-(trifluoromethyl)phenyl]methyl]-4-piperidyl]prop-2-enamide]
- pEC50 (TEAD; TEAD Reporter - MCF7 cells): < 6.30
- pEC50 (H226; H226 cells): < 6.30

SMILES: C=CC(=O)NC1CCN(Cc2cccc(C(F)(F)F)c2)CC1 [Compound I-51, N-[1-[[3-(trifluoromethyl)phenyl]methyl]-4-piperidyl]prop-2-enamide]
- pEC50 (TEAD; [1]): < 6.30
- pEC50 (H226; [2]): < 6.30

SMILES: C=CC(=O)NC1CCC(Oc2ccc(C(F)(F)F)cc2)CC1 (centres unmarked) [Compound I-67, N-[4-[4-(Trifluoromethyl)phenoxy]cyclohexyl]prop-2-enamide]
- pEC50 (TEAD; [1]): 6.30 to 7.00
- pEC50 (H226; [2]): 6.30 to 7.00

SMILES: C=CC(=O)NC1CCN(Cc2ccc(C3CC3)cc2)CC1 [Compound I-397]
- pEC50 (TEAD; [1]): < 6.30
- pEC50 (H226; [2]): 6.30 to 7.00

SMILES: C=CC(=O)Nc1cccc(N2CCCc3cc(C(F)(F)F)ccc32)c1 [Compound I-43]
- EC50 (TEAD; Homo sapiens, MCF7, read-out: TEAD Reporter Assay EC50 (uM)): > 0.5 µM
- EC50 (H226; Homo sapiens, NCI-H226, read-out: H226 EC50 (uM)): > 0.5 µM

SMILES: C=CC(=O)N1CCC(NCc2cccc(C(F)(F)F)c2)CC1 [Compound I-61]
- pEC50 (TEAD; [1]): < 6.30
- pEC50 (H226; [2]): < 6.30

SMILES: C=CC(=O)NC1CCN(c2cccc3ccccc23)CC1 [Compound I-66, N-[1-(1-Naphthyl)-4-piperidyl]prop-2-enamide]
- pEC50 (TEAD; [1]): < 6.30
- pEC50 (H226; [2]): < 6.30

SMILES: C=CC(=O)NC1CCN(Cc2ccc(C#N)cc2)CC1 [Compound I-393]
- pEC50 (TEAD; [1]): < 6.30
- pEC50 (H226; [2]): < 6.30

SMILES: C=CC(=O)NC1CCN(Cc2ccc(-c3ccccc3)cc2)CC1 [Compound I-389]
- pEC50 (TEAD; [1]): < 6.30
- pEC50 (H226; [2]): < 6.30

SMILES: FC(F)(F)c1ccc(CN2CCC3(CC2)CC(Br)=NO3)cc1 [Compound I-149, 3-bromo-8-[[4-(trifluoromethyl)phenyl]methyl]-1-oxa-2,8-diazaspiro[4.5]dec-2-ene]
- pEC50 (TEAD; [1]): < 6.30
- pEC50 (H226; [2]): 6.30 to 7.00

SMILES: C=CC(=O)NC1CCN(Cc2ccc(C(C)(C)C)cc2)CC1 [Compound I-395]
- pEC50 (TEAD; [1]): < 6.30
- pEC50 (H226; [2]): < 6.30

SMILES: C=CC(=O)Nc1ccc(C)c(Oc2cc(C(F)(F)F)ccc2Br)c1 [Compound I-41, N-[3-[2-bromo-5-(trifluoromethyl)phenoxy]-4-methyl-phenyl]prop-2-enamide]
- pEC50 (TEAD; [1]): < 6.30
- pEC50 (H226; [2]): < 6.30

SMILES: C=CC(=O)N[C@@H]1CCCN(Cc2cccc(C(F)(F)F)c2)C1 [Compound I-47, N-[(3R)-1-[[3-(trifluoromethyl)phenyl]methyl]-3-piperidyl]prop-2-enamide]
- pEC50 (TEAD; [1]): < 6.30
- pEC50 (H226; [2]): < 6.30

SMILES: C=CC(=O)Nc1ccc(C)c(Oc2cc(C(F)(F)F)ccc2OC)c1 [Compound I-32, N-[3-[2-Methoxy-5-(trifluoromethyl)phenoxy]-4-methyl-phenyl]prop-2-enamide]
- pEC50 (TEAD; [1]): < 6.30
- pEC50 (H226; [2]): < 6.30

SMILES: C=CC(=O)NC1CCN([C@@H](C)c2ccc(C(F)(F)F)cc2)CC1 [Compound I-63, N-[1-[(1S)-1-[4-(Trifluoromethyl)phenyl]ethyl]-4-piperidyl]prop-2-enamide]
- pEC50 (TEAD; [1]): 6.30 to 7.00
- pEC50 (H226; [2]): < 6.30

SMILES: C=CC(=O)NC1CCN(Cc2ccc(SC(F)(F)F)cc2)CC1 [Compound I-387]
- pEC50 (TEAD; [1]): < 6.30
- pEC50 (H226; [2]): < 6.30

SMILES: C=CC(=O)N[C@H]1CCCN(Cc2cccc(C(F)(F)F)c2)C1 [Compound I-48, N-[(3S)-1-[[3-(trifluoromethyl)phenyl]methyl]-3-piperidyl]prop-2-enamide]
- pEC50 (TEAD; [1]): < 6.30

SMILES: C=CC(=O)N1CCC(NCc2ccc(C(F)(F)F)cc2)CC1 [Compound I-53, 1-[4-[[4-(trifluoromethyl)phenyl]methylamino]-1-piperidyl]prop-2-en-1-one]
- pEC50 (TEAD; [1]): 6.30 to 7.00
- pEC50 (H226; [2]): 6.30 to 7.00

SMILES: C=CC(=O)NC1CCN(C(=O)c2ccc(C(F)(F)F)cc2)CC1 [Compound I-52, N-[1-[4-(trifluoromethyl)benzoyl]-4-piperidyl]prop-2-enamide]
- pEC50 (TEAD; [1]): 6.30 to 7.00
- pEC50 (H226; [2]): 6.30 to 7.00

SMILES: C=CC(=O)N[C@@H]1CCN(Cc2ccc(C(F)(F)F)cc2)C1 [Compound I-55, N-[(3R)-1-[[4-(trifluoromethyl)phenyl]methyl]pyrrolidin-3-yl]prop-2-enamide]
- pEC50 (TEAD; [1]): 6.30 to 7.00
- pEC50 (H226; [2]): 6.30 to 7.00

SMILES: C=CC(=O)NC1CCN(Cc2ccc(Cl)cc2)CC1 [Compound I-394]
- pEC50 (TEAD; [1]): 6.30 to 7.00
- pEC50 (H226; [2]): 6.30 to 7.00

SMILES: C=CC(=O)N1CC[C@H](NCc2cccc(C(F)(F)F)c2)C1 [Compound I-65, 1-[(3S)-3-[[3-(trifluoromethyl)phenyl]methylamino]pyrrolidin-1-yl]prop-2-en-1-one]
- pEC50 (TEAD; [1]): 6.30 to 7.00
- pEC50 (H226; [2]): < 6.30

SMILES: C=CC(=O)Nc1ccc2c(c1)N(c1cccc(C(F)(F)F)c1)CCC2 [Compound I-37, N-[1-[3-(trifluoromethyl)phenyl]-3,4-dihydro-2H-quinolin-7-yl]prop-2-enamide]
- pEC50 (TEAD; [1]): < 6.30
- pEC50 (H226; [2]): 6.30 to 7.00

SMILES: C=CC(=O)Nc1cc(Oc2cccc(C(F)(F)F)c2)c(C)cn1 [Compound I-45]
- pEC50 (TEAD; [1]): > 7.00
- pEC50 (H226; [2]): > 7.00

SMILES: C=CC(=O)N1C[C@@H]2[C@H](C1)[C@H]2NCc1cccc(C(F)(F)F)c1 [Compound I-72, 1-[(1S,5R)-6-[[3-(trifluoromethyl)phenyl]methylamino]-3-azabicyclo[3.1.0]hexan-3-yl]prop-2-en-1-one]
- pEC50 (TEAD; [1]): 6.30 to 7.00
- pEC50 (H226; [2]): > 7.00

SMILES: C=CC(=O)NC1CCN(Cc2ccc(OC(F)(F)F)cc2)CC1 [Compound I-388]
- pEC50 (TEAD; [1]): < 6.30
- pEC50 (H226; [2]): < 6.30

SMILES: C=CC(=O)Nc1cccc(N2CCCc3ccc(C(F)(F)F)cc32)c1 [Compound I-38, N-[3-[7-(trifluoromethyl)-3,4-dihydro-2H-quinolin-1-yl]phenyl]prop-2-enamide]
- pEC50 (TEAD; [1]): < 6.30
- pEC50 (H226; [2]): < 6.30

SMILES: C=CC(=O)NC1CCC(Nc2ccc(C(F)(F)F)cc2)CC1 (centres unmarked) [Compound I-56, N-[4-[4-(trifluoromethyl)anilino]cyclohexyl]prop-2-enamide]
- pEC50 (TEAD; TEAD Reporter - MCF7 cells): < 6.30
- pEC50 (H226; H226 cells): < 6.30

SMILES: C=CC(=O)N1CCC(Nc2ccc(C(F)(F)F)cc2)CC1 [Compound I-59, 1-[4-[4-(trifluoromethyl)anilino]-1-piperidyl]prop-2-en-1-one]
- pEC50 (TEAD; [1]): < 6.30
- pEC50 (H226; [2]): < 6.30

SMILES: C=CC(=O)N[C@H]1Cc2ccccc2N(Cc2cccc(C(F)(F)F)c2)C1 [Compound I-60, N-[(3S)-1-[[3-(trifluoromethyl)phenyl]methyl]-3,4-dihydro-2H-quinolin-3-yl]prop-2-enamide]
- pEC50 (TEAD; [1]): 6.30 to 7.00
- pEC50 (H226; [2]): > 7.00

SMILES: C=CC(=O)NC1CCC(Nc2ccc(C(F)(F)F)cc2)CC1 (centres unmarked) [Compound I-58, N-[4-[4-(trifluoromethyl)anilino]cyclohexyl]prop-2-enamide]
- pEC50 (TEAD; TEAD Reporter - MCF7 cells): < 6.30
- pEC50 (H226; H226 cells): < 6.30
